One series relates to IL-8 from CFTE cells. The series is described as follows: Hypersecretion of IL-8 from CFTE cells. As to conditions: qualitative.
In series [1] the test system is cat. The following applies: intravenous administration, Merck Index; cited from earlier work.
In another series the test system is NFκB. As to conditions: 1 μM concentration; variety of cultured cancer cells; cited from earlier work.
Series [2] concerns cat. Nature of the series: LD50, intravenous administration to the cat (Merck Index).

With `CCCn1c(=O)c2[nH]c(C3CCCC3)nc2n(CCC)c1=O` [CPX, 1,3-Dipropyl-8-Cyclopentyl xanthine], the “hypersecretion of IL-8 from CFTE cells” value in the series on IL-8 from CFTE cells is recorded as “suppressed”.

As for `CO[C@H]1C[C@H](O[C@H]2CC[C@@]3(C)[C@H](CC[C@@H]4[C@@H]3CC[C@]3(C)[C@@H](C5=CC(=O)OC5)[C@@H](OC(C)=O)C[C@]43O)C2)O[C@@H](C)[C@@H]1O` [Compound I], the 50% lethal dose (LD50) with cat [1] is listed as 0.3 mg/kg. Further, the solubility entry in “Solubility in ethanol” is recorded as “soluble in ethanol”. In addition, the “TNFα-dependent activation of NFκB” value in the series on NFκB is listed as “suppresses”. Besides, the “LD-50-defined toxicity (concentration)” value in the series with cat [2] (as restated) was at least 0.6 µM. For the same molecule, the “concentration corresponding to LD50” value in the series with cat [2] (assuming body weight is all water and uniform distribution) was 600 nM.

In general, LD50 refers to the dose expected to kill half of the subjects tested.

The values above are taken from patent publication US20060234955A1, “Cardiac glycosides to treat cystic fibrosis and other il-8 dependent disorders” (priority 2002, published 2006).
